Laboratory results as given in the supplement of paper PMC8967900.

Experiments:
Assay in all cases: selective drug sensitivity score (sDSS, relative to normal bone marrow) (sDSS (score)); higher = more potent and effective on the cell line relative to normal bone marrow cells
Conditions in all cases: 72 h
380 = test system: 380
697 = test system: 697
ALL-SIL = test system: ALL-SIL
CCRF-HSB2 = test system: CCRF-HSB2
COG-LL-319h = test system: COG-LL-319h
COG-LL-355h = test system: COG-LL-355h
COG-LL-402h = test system: COG-LL-402h
DND-41 = test system: DND-41
JURKAT = test system: JURKAT
KASUMI-2 = test system: KASUMI-2
KASUMI-9 = test system: KASUMI-9
MHH-CALL-2 = test system: MHH-CALL-2
MN-60 = test system: MN-60
NALM-16 = test system: NALM-16
P12-ICHIKAWA = test system: P12-ICHIKAWA
PEER = test system: PEER
PF-382 = test system: PF-382
REH = test system: REH
RPMI-8402 = test system: RPMI-8402
TANOUE = test system: TANOUE
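Further: ALL cell lines in 384-well plates, five doses spanning 10,000-fold, each plate scaled between vehicle and 100 µmol/L benzalkonium chloride controls, sDSS an adapted area-under-curve metric.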

Row | Compound | selective drug sensitivity score 380 | selective drug sensitivity score 697 | selective drug sensitivity score (ALL-SIL) | selective drug sensitivity score (CCRF-HSB2) | selective drug sensitivity score (COG-LL-319h) | selective drug sensitivity score (COG-LL-355h) | selective drug sensitivity score (COG-LL-402h) | selective drug sensitivity score (DND-41) | selective drug sensitivity score (JURKAT) | selective drug sensitivity score (KASUMI-2) | selective drug sensitivity score (KASUMI-9) | selective drug sensitivity score (MHH-CALL-2) | selective drug sensitivity score (MN-60) | selective drug sensitivity score (NALM-16) | selective drug sensitivity score (P12-ICHIKAWA) | selective drug sensitivity score (PEER) | selective drug sensitivity score (PF-382) | selective drug sensitivity score (REH) | selective drug sensitivity score (RPMI-8402) | selective drug sensitivity score (TANOUE)
1 | Cc1ccc(NS(=O)(=O)c2cccc(C#N)c2)c2[nH]cc(C#N)c12 [E7820] (top concentration 50000 nM) | 30.8 | 21.7 | 20.2 | 18 | 18 | 6.22 | 17.2 | 9.82 | 21.7 | 5.82 | 12.7 | 19.4 | -1.88 | 1.82 | 15.4 | 17.8 | 10.2 | 13.7 | 17.9 | -6.28
2 | C[C@@H]1CN(C(=O)c2ccc(NC(=O)c3cc(O[C@H](C)c4c(Cl)ccc(F)c4Cl)c(N)nn3)cc2)C[C@H](C)N1 [Ensartinib] (top concentration 1000 nM) | 0.06 | 0.26 | 1.06 | -0.64 | -2.64 | 1.86 | -2.34 | -2.84 | -2.54 | -1.54 | 0.76 | -2.84 | -2.84 | -2.14 | -2.54 | 1.96 | -2.64 | -2.24 | 0.06 | -2.84
3 | c1cn2cc(-c3ccc4cn[nH]c4c3)nc(Nc3ccc(N4CCOCC4)cc3)c2n1 [Entospletinib] (top concentration 5000 nM) | -0.64 | 3.16 | -0.64 | -0.64 | -0.64 | 1.06 | 0.36 | -0.64 | -0.64 | -0.64 | 2.96 | -0.64 | -0.64 | -0.64 | -0.64 | -0.64 | -0.64 | -0.64 | -0.64 | -0.64
4 | COc1cc([C@@H]2c3cc4c(cc3[C@@H](O[C@@H]3O[C@@H]5CO[C@@H](C)O[C@H]5[C@H](O)[C@H]3O)[C@H]3COC(=O)[C@H]23)OCO4)cc(OC)c1O [Etoposide] (top concentration 10000 nM) | 21.3 | 20.6 | 14.3 | 26 | 23.2 | 6.74 | 21.4 | 11.3 | 14.2 | 20.9 | 16.3 | 13.2 | -0.86 | 2.64 | 18.9 | 6.84 | 13.5 | 20.3 | 17.4 | -6.26
5 | CCCCCCCCc1ccc(CCC(N)(CO)CO)cc1 [Fingolimod] (top concentration 10000 nM) | -1.12 | -0.22 | 1.98 | 0.48 | 0.28 | 6.88 | -0.92 | 1.28 | -1.12 | -0.82 | 0.08 | 8.88 | 1.28 | -0.02 | -0.92 | 1.78 | -0.62 | -1.52 | -1.12 | 0.78
6 | O=C(NOCCO)c1ccc2cncn2c1Nc1ccc(I)cc1F [GDC-0623] (top concentration 2500 nM) | -0.4 | -2.5 | -3.4 | 0.8 | -2.1 | -0.4 | -3.2 | 0.2 | -3.2 | 0.3 | -0.4 | 0.6 | -3.4 | 0.1 | -1.7 | -0.1 | -3.3 | -3.4 | -3.3 | -3.4
7 | C[C@H]1CN(C2COC2)CCN1c1ccc(Nc2cc(-c3ccnc(N4CCn5c(cc6c5CC(C)(C)C6)C4=O)c3CO)cn(C)c2=O)nc1 [GDC-0853] (top concentration 1000 nM) | 0 | 0 | 1.6 | 0 | 2.8 | 0 | 1.1 | 0 | 0 | 0 | 0 | 0 | 0 | 0 | 0 | 0 | 0 | 0.2 | 0 | 0
8 | CCNc1nc(Nc2cc(F)c(C(=O)N3CCOCC3)cc2OC)ncc1C(F)(F)F [GNE-7915] (top concentration 1000 nM) | -0.06 | -0.06 | -0.06 | -0.06 | -0.06 | -0.06 | -0.06 | -0.06 | -0.06 | -0.06 | -0.06 | 1.74 | -0.06 | -0.06 | -0.06 | -0.06 | -0.06 | -0.06 | -0.06 | -0.06
9 | COc1cc2ncnc(Nc3ccc(F)c(Cl)c3)c2cc1OCCCN1CCOCC1 [Gefitinib] (top concentration 10000 nM) | -3.04 | 2.26 | 3.66 | 6.16 | 5.66 | 0.96 | 0.96 | 1.16 | -1.44 | -3.04 | 0.16 | 1.86 | 0.66 | -3.04 | 0.96 | 2.76 | 0.26 | 2.36 | 3.96 | -1.84
10 | CN1CC[C@@H](NC(=O)Nc2ccc(C#N)cc2)C[C@@H]1c1nc2ccccc2[nH]1 [Glasdegib] (top concentration 1000 nM) | 0 | 0 | 0.8 | 0 | 4.1 | 0 | 0 | 2.9 | 0 | 11.9 | 0 | 0 | 4.7 | 0 | 0 | 0 | 0 | 1.6 | 0 | 2.9
11 | CN1CCN(C2CCN(C(=O)Nc3cc(Oc4ccc(NC(=O)C5(C(=O)Nc6ccc(F)cc6)CC5)c(F)c4)ccn3)CC2)CC1 [Golvatinib] (top concentration 2500 nM) | -0.14 | 1.76 | 4.56 | 2.96 | -0.14 | -0.14 | -0.14 | -0.04 | -0.14 | -0.14 | 0.66 | 0.26 | -0.14 | -0.14 | -0.14 | 2.46 | -0.14 | 2.46 | 0.26 | -0.14
12 | CC(C)C[C@H](NC(=O)[C@@H](COC(C)(C)C)NC(=O)[C@H](Cc1ccc(O)cc1)NC(=O)[C@H](CO)NC(=O)[C@H](Cc1c[nH]c2ccccc12)NC(=O)[C@H](Cc1cnc[nH]1)NC(=O)[C@@H]1CCC(=O)N1)C(=O)N[C@@H](CCCNC(=N)N)C(=O)N1CCC[C@H]1C(=O)NNC(N)=O [Goserelin] (top concentration 10000 nM) | -0.06 | -0.06 | -0.06 | 0.04 | 4.84 | -0.06 | -0.06 | -0.06 | -0.06 | -0.06 | -0.06 | -0.06 | -0.06 | -0.06 | -0.06 | -0.06 | -0.06 | 0.14 | -0.06 | -0.06
13 | O=S(=O)(c1cccc2c(O)nccc12)N1CCCNCC1 [Hydroxyfasudil] (top concentration 19000 nM) | 3.98 | 1.18 | -0.92 | 0.98 | -0.72 | -0.92 | -0.92 | -0.92 | -0.92 | 0.08 | -0.12 | 5.88 | -0.92 | -0.92 | -0.92 | 0.08 | -0.92 | -0.62 | -0.72 | -0.92
14 | COc1cc(C(=O)O)ccc1NC(=O)[C@@H]1N[C@@H](CC(C)(C)C)[C@](C#N)(c2ccc(Cl)cc2F)[C@H]1c1cccc(Cl)c1F [Idasanutlin] (top concentration 10000 nM) | 23.5 | 16.8 | -12.5 | 15.5 | 17 | 13.7 | 15.4 | -11 | -7.74 | 18.2 | 23 | 18.7 | 0.46 | -8.74 | -11.5 | -9.04 | -12.2 | 8.16 | -12.5 | -12.5
15 | CCN1CCN(c2ccc(Nc3cc(N(C)C(=O)Nc4c(Cl)c(OC)cc(OC)c4Cl)ncn3)cc2)CC1 [Infigratinib] (top concentration 1000 nM) | 0 | 0 | 0 | 0 | 0 | 0 | 0 | 0 | 0 | 0 | 0 | 0 | 0 | 0 | 0 | 0 | 0 | 0 | 0 | 0
16 | O=C(Nc1cnn2ccc(N3CCC[C@@H]3c3cc(F)ccc3F)nc12)N1CC[C@H](O)C1 [Larotrectinib] (top concentration 1000 nM) | -0.62 | -0.62 | -0.62 | -0.62 | 3.78 | 0.48 | 2.78 | -0.62 | -0.62 | -0.62 | 0.98 | -0.52 | -0.62 | -0.62 | -0.62 | -0.62 | -0.62 | -0.62 | -0.62 | -0.62
17 | C[C@]1(O)C[C@@H](c2nc(-c3ccc4ccc(-c5ccccc5)nc4c3)c3c(N)nccn32)C1 [Linsitinib] (top concentration 10000 nM) | 1.72 | -2.68 | 2.22 | -2.28 | -1.78 | 3.12 | -3.18 | 4.82 | -3.18 | -0.28 | -2.98 | 2.32 | -3.18 | -3.18 | -3.18 | -0.98 | -2.88 | -3.18 | -2.08 | -3.18
